# Experimental data taken from PMC4357247, “Novel agonists for serotonin 5-HT7 receptors reverse metabotropic glutamate receptor-mediated long-term depression in the hippocampus of wild-type and Fmr1 KO mice, a model of Fragile X Syndrome” (Frontiers in Behavioral Neuroscience, 2015).
# “And” between values parts separate entries of the source, which are not always exact repeats. Identical values can stand only once.
# Legend:
# [1] = test system: mGluR-LTD in CA1 pyramidal neurons of hippocampal slices (native 5-HT7 receptors); assay: Patch clamp: reversal of DHPG-induced mGluR-LTD of EPSCs in CA1 pyramidal neurons, hippocampal slices from wild-type mice; format: cell-based; conditions: 5 min, measured 45 min after DHPG; for EPSC amplitude: compound 10 nM
# Experimental: (§1) Patch clamp experiments were performed on mouse hippocampal slices from wild-type (wt) mice (FVB and C57BL/6J background) and Fmr1 KO2 mice (C57BL/6J background, kindly provided by Prof. Willemsen, Erasmus MC, Rotterdam, The Netherlands). […] Every care was taken to maximally reduce the number of animals and to minimize discomfort.
# (§2) Acute hippocampal slices ([…]) were cut with a vibratome (Leica VT 1200). Slices were continually perfused with oxygenated ACSF. After 3 h of recovery, one slice was placed in the recording chamber of a patch camp set up and viewed with infrared microscopy (Leica DMLFS). A tungsten electrode was placed in the stratum radiatum to stimulate Schaffer collaterals with negative current pulses (duration 0.3 ms, delivered every 15 s by A310 Accupulser, WPI, USA). Evoked AMPA receptor-mediated excitatory post-synaptic currents (EPSCs) were recorded from CA1 pyramidal neurons under whole-cell patch clamp (holding potential -70 mV; EPC7-plus amplifier HEKA, Germany). Stimulation intensity was set to induce half-maximal EPSC amplitude. Series resistance (Rs) was monitored throughout the recording by means of 10 mV hyperpolarizing pulses; recordings were discarded from analysis if Rs changed by more than 20%. EPSC traces were filtered at 3 kHz and digitized at 10 kHz. Data were acquired and analyzed using Signal software (CED, England). The recording micropipette (resistance 1.5–3 MΩ) was filled with intracellular solution (in mM: K-gluconate 140; HEPES 10; NaCl 10; MgCl2 2; EGTA 0.2; Mg-ATP 3.5; Na-GTP 1; pH 7.3).
# (§3) Cumulative histograms indicate % EPSC amplitude (mean ± SEM from groups of neurons) after application of DHPG alone (control LTD) or DHPG followed by a 5-HT7 receptor agonist. EPSC amplitude values from two groups of neurons were compared using the Student's t-test, with n indicating the number of neurons tested in each condition.
# 5-HT7 receptors = 5-HT7 receptors (Homo sapiens, UniProt P34969); assay: Radioligand binding affinity for 5-HT7 receptors
# 5-HT1A receptors = target: T1, 5-HT1A receptors (Homo sapiens, UniProt P08908); assay: Binding affinity for 5-HT1A receptors
# T1 sequence (P08908 1-422): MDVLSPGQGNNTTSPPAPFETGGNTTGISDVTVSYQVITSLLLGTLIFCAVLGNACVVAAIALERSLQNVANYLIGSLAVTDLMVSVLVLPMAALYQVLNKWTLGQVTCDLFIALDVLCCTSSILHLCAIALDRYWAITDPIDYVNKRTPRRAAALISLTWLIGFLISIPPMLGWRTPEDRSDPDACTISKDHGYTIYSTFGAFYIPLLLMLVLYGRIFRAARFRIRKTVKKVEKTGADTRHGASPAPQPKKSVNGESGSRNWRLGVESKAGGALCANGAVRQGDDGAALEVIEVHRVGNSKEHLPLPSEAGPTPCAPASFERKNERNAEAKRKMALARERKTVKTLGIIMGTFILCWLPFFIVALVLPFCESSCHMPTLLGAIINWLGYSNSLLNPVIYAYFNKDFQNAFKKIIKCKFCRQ
# Excerpt: Table 1 Binding Affinity Data and Pharmacokinetic Parameters of Test Compounds. | column: 5-HT1AKi [nM]
# [2] = Metabolic stability in mouse hepatic microsomes with NADPH-generating system; format: in vitro ADME; conditions: pH 7.4; for half-life at 1 μM: mouse liver microsomes 0.5 mg/mL, 1 μM compound, 37°C; for microsomal CLint at 1 μM: calculated from in vitro half-life, mouse liver microsomes
# Experimental: Metabolic reactions were initiated by the addition of a NADPH regenerating system (NADP, glucose-6-phosphate, glucose-6-phosphate dehydrogenase, final glucose-6-phosphate dehydrogenase concentration, 1 unit/mL). Aliquots were removed (0, 5, 10, 30, and 60 min) and immediately mixed with an equal volume of cold acetonitrile containing internal standard. Test compound incubated with microsomes without NADPH regenerating system for 60 min was included. […] The column used was a Phenomenex Gemini C-18 (250 × 4.6 mm, 5 μm particle size). The samples were isocratically eluted using CH3CN/ammonium formate (20 mM, pH 5.5) 7:3 (v/v) as mobile phase. […] Liver microsomes provide the most convenient way to study cytochrome P450 enzyme-mediated metabolism.
# P-glycoprotein (P-gp) = target: T2, P-glycoprotein (P-gp) (Homo sapiens, UniProt P08183); assay: Efflux ratio (BA/AB) in Caco-2 cells monolayer; format: in vitro ADME; conditions: efflux ratio basal-to-apical / apical-to-basal, Caco-2 monolayer, cutoff 3 for P-gp substrate
# T2 construct: fluxes in Caco-2 cells monolayer; endogenous in cells; host or cells: Caco-2 cells
# Excerpt: This system is an in vitro model to evaluate the interaction of small molecules with P-glycoprotein (P-gp), an efflux pump localized on the blood-brain barrier that prevents xenobiotics to enter the brain. Therefore, a centrally acting drug should not be a P-gp substrate.
# [3] = test system: mGluR-LTD in CA1 pyramidal neurons of hippocampal slices (native 5-HT7 receptors); assay: Patch clamp: reversal of DHPG-induced mGluR-LTD of EPSCs in CA1 pyramidal neurons, hippocampal slices from Fmr1 KO mice; format: cell-based; conditions: Fmr1 KO (C57BL6J) slices, 5 min; for EPSC amplitude: compound 10 nM, applied after DHPG (100 μM, 5 min)
# Experimental: as §1, §2, §3
# [4] = design: method as in Leopoldo et al., 2008; conditions: mice, intraperitoneal injection; ref Leopoldo et al., 2008; cited from earlier work
# [5] = wt FVB slices, applied after DHPG (100 μM, 5 min)
# T2 sequence (P08183 whole entry): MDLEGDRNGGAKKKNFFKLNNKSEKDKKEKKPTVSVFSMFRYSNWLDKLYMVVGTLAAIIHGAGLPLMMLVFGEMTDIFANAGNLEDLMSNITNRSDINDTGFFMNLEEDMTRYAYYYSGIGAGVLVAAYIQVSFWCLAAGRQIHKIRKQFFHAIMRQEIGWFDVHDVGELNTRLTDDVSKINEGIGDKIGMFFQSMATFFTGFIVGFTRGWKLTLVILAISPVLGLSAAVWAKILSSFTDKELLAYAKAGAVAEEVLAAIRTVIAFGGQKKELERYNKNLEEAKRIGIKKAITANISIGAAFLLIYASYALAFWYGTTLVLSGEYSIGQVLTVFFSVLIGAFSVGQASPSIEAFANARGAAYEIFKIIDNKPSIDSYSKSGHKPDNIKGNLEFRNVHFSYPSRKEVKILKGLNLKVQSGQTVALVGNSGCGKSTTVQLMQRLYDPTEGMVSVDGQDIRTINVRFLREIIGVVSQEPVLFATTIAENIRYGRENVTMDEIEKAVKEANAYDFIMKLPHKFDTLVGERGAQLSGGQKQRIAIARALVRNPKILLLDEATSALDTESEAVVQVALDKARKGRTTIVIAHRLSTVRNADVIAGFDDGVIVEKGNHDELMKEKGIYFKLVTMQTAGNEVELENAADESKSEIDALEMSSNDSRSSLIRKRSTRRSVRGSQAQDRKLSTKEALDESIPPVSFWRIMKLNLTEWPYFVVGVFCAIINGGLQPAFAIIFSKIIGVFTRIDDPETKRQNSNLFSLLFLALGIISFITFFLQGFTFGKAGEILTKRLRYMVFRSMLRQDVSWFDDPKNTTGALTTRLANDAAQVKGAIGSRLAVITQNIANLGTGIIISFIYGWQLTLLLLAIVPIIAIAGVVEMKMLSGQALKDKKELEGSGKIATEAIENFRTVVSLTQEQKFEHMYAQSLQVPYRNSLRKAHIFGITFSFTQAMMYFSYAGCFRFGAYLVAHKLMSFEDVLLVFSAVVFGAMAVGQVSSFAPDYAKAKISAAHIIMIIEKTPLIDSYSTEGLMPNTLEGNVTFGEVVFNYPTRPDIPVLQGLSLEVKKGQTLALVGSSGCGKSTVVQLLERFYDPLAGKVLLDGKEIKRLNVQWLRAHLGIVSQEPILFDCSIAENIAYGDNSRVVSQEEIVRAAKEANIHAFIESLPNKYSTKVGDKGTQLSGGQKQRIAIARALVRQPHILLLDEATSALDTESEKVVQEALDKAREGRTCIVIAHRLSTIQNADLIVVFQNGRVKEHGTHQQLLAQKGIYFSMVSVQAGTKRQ
# Sequence of 5-HT7 receptors (P34969 whole entry): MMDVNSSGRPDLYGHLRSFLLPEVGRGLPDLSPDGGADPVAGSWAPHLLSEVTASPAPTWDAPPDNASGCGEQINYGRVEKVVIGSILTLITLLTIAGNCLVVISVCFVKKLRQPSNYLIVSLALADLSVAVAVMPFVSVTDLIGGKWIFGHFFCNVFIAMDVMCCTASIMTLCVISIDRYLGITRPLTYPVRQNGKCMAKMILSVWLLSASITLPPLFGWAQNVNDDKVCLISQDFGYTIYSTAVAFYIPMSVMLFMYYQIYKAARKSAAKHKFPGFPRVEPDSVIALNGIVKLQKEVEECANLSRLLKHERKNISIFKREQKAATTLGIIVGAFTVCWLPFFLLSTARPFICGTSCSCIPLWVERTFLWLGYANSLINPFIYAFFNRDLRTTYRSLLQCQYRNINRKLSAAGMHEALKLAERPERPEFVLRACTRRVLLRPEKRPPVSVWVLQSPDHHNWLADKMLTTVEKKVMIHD
Structure (SMILES),Ki (5-HT1A receptors) [nM],half-life at 1 μM [2] [min],microsomal CLint at 1 μM [2] [µL/min/mg],"EPSC amplitude [1, 5]",also measured
"c1ccc(-c2ccccc2N2CCNCC2)cc1 [RA-7, 1-(2-biphenyl)piperazine]",,,,64 ± 7 % of control,
"COc1ccc(-c2ccccc2N2CCNCC2)cc1 [PM-20, 1-[2-(4-methoxyphenyl)phenyl]piperazine]",,,,60 ± 7 % of control,
"COc1ccc(-c2ccccc2N2CCN(C[C@@H](O)COc3cnccn3)CC2)cc1 [BA-10, (R)-1-[4-[2-(4-methoxyphenyl)phenyl]piperazin-1-yl]-3-(2-pyrazinyloxy)-2-propanol]",,14.8,96,,
"N[C@H](C(=O)O)c1cc(O)cc(O)c1 [DHPG, S-3,5-DHPG]",,,,,"EPSC amplitude after DHPG alone (mGluR-LTD) ([1]; wt C57BL/6J slices, DHPG 100 μM): 74.4 ± 9.8 % of control; EPSC amplitude after DHPG alone (mGluR-LTD) ([3]; DHPG 100 μM, measured 45 min after DHPG): 56 ± 5 % of control and 56 ± 12 % of control"

# The next lines start with results.
Ki (5-HT1A receptors) [nM],half-life at 1 μM [2] [min],microsomal CLint at 1 μM [2] [µL/min/mg],Structure (SMILES),"EPSC amplitude [1, 5]",also measured
152,6.7,205,"COc1ccc(-c2ccccc2N2CCN(CCCCCC(=O)NCc3ccc(F)nc3)CC2)cc1 [PF-62, N-(2-fluoropyridin-5-ylmethyl)-4-[2-(4-methoxy)phenyl]-1-piperazinehexanamide]",,Ki (5-HT7 receptors): 3.82 nM; efflux ratio (P-glycoprotein (P-gp)): 4.2
188,10.6,131,"N#Cc1ccc(CNC(=O)CCCCCN2CCN(c3ccccc3-c3ccccc3)CC2)cc1 [LP-211, N-(4-cyanophenylmethyl)-4-(2-diphenyl)-1-piperazinehexanamide, reference compound]",,"EPSC amplitude ([1]; wt C57BL/6J slices, applied 5 min after DHPG (100 μM, 5 min)): 99.4 ± 1.5 % of control; EPSC amplitude ([3]; 45 min after DHPG): 78 ± 5 % of control; EPSC amplitude ([3]; 55 min after DHPG): 97 ± 3 % of control; in vivo half-life [4]: 65 min"
